# Counter-ions that a name gives are not always drawn.
# Test system: Overweight and obese adults
# Assay: Phase 1 blinded, placebo-controlled, dose-ranging clinical study (NCT02475317), fecal bile acid excretion
# Method: Participants consumed a low-fiber diet (<10 mg/day) for 2 days before randomization and during the 7-day treatment period. Measurements were taken of fBA, sBA concentration, and serum 7αC4 concentration (which is a biomarker of bile acid synthesis) prior to drug administration and at day 7.
smiles,measurement,setting,value
"CCCC[C@]1(CC)CS(=O)(=O)c2ccc(N(C)C)cc2[C@@H](c2cccc(NC(=O)N[C@@H]3O[C@H](COS(=O)(=O)O)[C@@H](O)[C@H](OCc4ccccc4)[C@H]3O)c2)[C@H]1O [volixibat, (2R,3R,4S,5R,6R)-4-benzyloxy-6-{3-[3-((3S,4R,5R)-3-butyl-7-dimethylamino-3-ethyl-4-hydroxy-1,1-dioxo-2,3,4,5-tetrahydro-1H-benzo[b]thiepin-5-yl)-phenyl]-ureido}-3,5-dihydroxy-tetrahydro-pyran-2-ylmethyl) hydrogen sulfate]",Mean sBA levels,7 days,not elevated
same,fBA excretion,across doses,increased in a dose-dependent manner
same,treatment-emergent adverse events occurring in over 10% of participants,all doses,headache and diarrhea
same,"treatment-emergent adverse events, severity",all doses,"mild, and none were serious"
same,Mean serum 7αC4,baseline to day 7,increased

# Reference: US12599602B2, “Methods for treating cholestasis” (Mirum Pharmaceuticals, Inc., priority 2019, dated 2026)
